Tests used:
Test in all cases: Effect of metal salts on the color of the marker part, substrate 50 mg/l in Columbia medium (Example 3)
Type in all cases: cell-based
[1] = test system: Listeria innocua 036
Description: (§1) To the Columbia-base medium (46.37 g/l) supplemented with Alizarin-2-β-D-glucoside (50 mg/l), were added either Manganese chloride, Ammoniacal iron citrate, Tin chloride, or Aluminum sulfate, all at a concentration of 50 mg/l. A control medium with no metal salts was tested in parallel. After autoclaving, these various media were all used to prepare Petri dishes (20 ml per plate). […] It should be pointed out that intensity readings are in arbitrary units. The only purpose of giving these values is to make it possible to compare one strain with another in this respect. The same is true for the examples which follow. Similarly, the strains tested were taken from the Applicant's collection and the number given represents an internal reference specific to this collection. The same internal numbering system is also used in some of the examples given later on.

[2] = test system: Listeria welshimeri 023
Description: as §1

[3] = test system: Listeria monocytogenes 079
Description: as §1

[4] = test system: Listeria ivanovii 018
Description: as §1

[5] = test system: Listeria monocytogenes 023
Description: as §1

[6] = test system: Listeria ivanovii 020
Description: as §1

[7] = test system: Listeria ivanovii 032
Description: as §1

[8] = Manganese chloride 50 mg/l, 24 H
[9] = Manganese chloride 50 mg/l, 48 H

Structure (SMILES): O=C1c2ccccc2C(=O)c2c1ccc(O[C@@H]1O[C@H](CO)[C@@H](O)[C@H](O)[C@H]1O)c2O [Alizarin-2-β-D-glucoside]
- Color ([1]; Aluminum sulfate 50 mg/l, 24 H): red
- Intensity ([1]; Aluminum sulfate 50 mg/l, 24 H): 4 arbitrary units
- Color ([1]; Aluminum sulfate 50 mg/l, 48 H): red
- Intensity ([1]; Aluminum sulfate 50 mg/l, 48 H): 4 arbitrary units
- Color ([1]; Control, no metal salt, 24 H): purple
- Intensity ([1]; Control, no metal salt, 24 H): 2.3 arbitrary units
- Color ([1]; Control, no metal salt, 48 H): purple
- Intensity ([1]; Control, no metal salt, 48 H): 2.7 arbitrary units
- Color ([1]; Iron citrate 50 mg/l, 24 H): purple
- Intensity ([1]; Iron citrate 50 mg/l, 24 H): 4 arbitrary units
- Color ([1]; Iron citrate 50 mg/l, 48 H): purple
- Intensity ([1]; Iron citrate 50 mg/l, 48 H): 4 arbitrary units
- Color [1, 8]: purple
- Intensity [1, 8]: 2.3 arbitrary units
- Color [1, 9]: purple
- Intensity [1, 9]: 2.7 arbitrary units
- Color ([1]; Tin chloride 50 mg/l, 24 H): orange
- Intensity ([1]; Tin chloride 50 mg/l, 24 H): 3 arbitrary units
- Color ([1]; Tin chloride 50 mg/l, 48 H): orange
- Intensity ([1]; Tin chloride 50 mg/l, 48 H): 4 arbitrary units
- Color ([2]; Aluminum sulfate 50 mg/l, 24 H): red
- Intensity ([2]; Aluminum sulfate 50 mg/l, 24 H): 4 arbitrary units
- Color ([2]; Aluminum sulfate 50 mg/l, 48 H): red
- Intensity ([2]; Aluminum sulfate 50 mg/l, 48 H): 4 arbitrary units
- Color ([2]; Control, no metal salt, 24 H): purple
- Intensity ([2]; Control, no metal salt, 24 H): 2.3 arbitrary units
- Color ([2]; Control, no metal salt, 48 H): purple
- Intensity ([2]; Control, no metal salt, 48 H): 2.3 arbitrary units
- Color ([2]; Iron citrate 50 mg/l, 24 H): purple
- Intensity ([2]; Iron citrate 50 mg/l, 24 H): 4 arbitrary units
- Color ([2]; Iron citrate 50 mg/l, 48 H): purple
- Intensity ([2]; Iron citrate 50 mg/l, 48 H): 4 arbitrary units
- Color [2, 8]: purple
- Intensity [2, 8]: 2.3 arbitrary units
- Color [2, 9]: purple
- Intensity [2, 9]: 2.7 arbitrary units
- Color ([2]; Tin chloride 50 mg/l, 24 H): orange
- Intensity ([2]; Tin chloride 50 mg/l, 24 H): 3 arbitrary units
- Color ([2]; Tin chloride 50 mg/l, 48 H): orange
- Intensity ([2]; Tin chloride 50 mg/l, 48 H): 4 arbitrary units
- Color ([3]; Aluminum sulfate 50 mg/l, 24 H): red
- Intensity ([3]; Aluminum sulfate 50 mg/l, 24 H): 4 arbitrary units
- Color ([3]; Aluminum sulfate 50 mg/l, 48 H): red
- Intensity ([3]; Aluminum sulfate 50 mg/l, 48 H): 4 arbitrary units
- Color ([3]; Control, no metal salt, 24 H): purple
- Intensity ([3]; Control, no metal salt, 24 H): 2.3 arbitrary units
- Color ([3]; Control, no metal salt, 48 H): purple
- Intensity ([3]; Control, no metal salt, 48 H): 2.3 arbitrary units
- Color ([3]; Iron citrate 50 mg/l, 24 H): purple
- Intensity ([3]; Iron citrate 50 mg/l, 24 H): 4 arbitrary units
- Color ([3]; Iron citrate 50 mg/l, 48 H): purple
- Intensity ([3]; Iron citrate 50 mg/l, 48 H): 4 arbitrary units
- Color [3, 8]: purple
- Intensity [3, 8]: 2.7 arbitrary units
- Color [3, 9]: purple
- Intensity [3, 9]: 2.7 arbitrary units
- Color ([3]; Tin chloride 50 mg/l, 24 H): orange
- Intensity ([3]; Tin chloride 50 mg/l, 24 H): 3.5 arbitrary units
- Color ([3]; Tin chloride 50 mg/l, 48 H): orange
- Intensity ([3]; Tin chloride 50 mg/l, 48 H): 4 arbitrary units
- Color ([4]; Aluminum sulfate 50 mg/l, 24 H): red
- Intensity ([4]; Aluminum sulfate 50 mg/l, 24 H): 4 arbitrary units
- Color ([4]; Aluminum sulfate 50 mg/l, 48 H): red
- Intensity ([4]; Aluminum sulfate 50 mg/l, 48 H): 4 arbitrary units
- Color ([4]; Control, no metal salt, 24 H): purple
- Intensity ([4]; Control, no metal salt, 24 H): 2.3 arbitrary units
- Color ([4]; Control, no metal salt, 48 H): purple
- Intensity ([4]; Control, no metal salt, 48 H): 2.3 arbitrary units
- Color ([4]; Iron citrate 50 mg/l, 24 H): purple
- Intensity ([4]; Iron citrate 50 mg/l, 24 H): 4 arbitrary units
- Color ([4]; Iron citrate 50 mg/l, 48 H): purple
- Intensity ([4]; Iron citrate 50 mg/l, 48 H): 4 arbitrary units
- Color [4, 8]: purple
- Intensity [4, 8]: 2.7 arbitrary units
- Color [4, 9]: purple
- Intensity [4, 9]: 2.7 arbitrary units
- Color ([4]; Tin chloride 50 mg/l, 24 H): orange
- Intensity ([4]; Tin chloride 50 mg/l, 24 H): 3 arbitrary units
- Color ([4]; Tin chloride 50 mg/l, 48 H): orange
- Intensity ([4]; Tin chloride 50 mg/l, 48 H): 4 arbitrary units
- Color ([5]; Aluminum sulfate 50 mg/l, 24 H): red
- Intensity ([5]; Aluminum sulfate 50 mg/l, 24 H): 4 arbitrary units
- Color ([5]; Aluminum sulfate 50 mg/l, 48 H): red
- Intensity ([5]; Aluminum sulfate 50 mg/l, 48 H): 4 arbitrary units
- Color ([5]; Control, no metal salt, 24 H): purple
- Intensity ([5]; Control, no metal salt, 24 H): 2 arbitrary units
- Color ([5]; Control, no metal salt, 48 H): purple
- Intensity ([5]; Control, no metal salt, 48 H): 2 arbitrary units
- Color ([5]; Iron citrate 50 mg/l, 24 H): purple
- Intensity ([5]; Iron citrate 50 mg/l, 24 H): 4 arbitrary units
- Color ([5]; Iron citrate 50 mg/l, 48 H): purple
- Intensity ([5]; Iron citrate 50 mg/l, 48 H): 4 arbitrary units
- Color [5, 8]: purple
- Intensity [5, 8]: 2.7 arbitrary units
- Color [5, 9]: purple
- Intensity [5, 9]: 2.7 arbitrary units
- Color ([5]; Tin chloride 50 mg/l, 24 H): orange
- Intensity ([5]; Tin chloride 50 mg/l, 24 H): 3 arbitrary units
- Color ([5]; Tin chloride 50 mg/l, 48 H): orange
- Intensity ([5]; Tin chloride 50 mg/l, 48 H): 4 arbitrary units
- Color ([6]; Aluminum sulfate 50 mg/l, 24 H): red
- Intensity ([6]; Aluminum sulfate 50 mg/l, 24 H): 4 arbitrary units
- Color ([6]; Aluminum sulfate 50 mg/l, 48 H): red
- Intensity ([6]; Aluminum sulfate 50 mg/l, 48 H): 4 arbitrary units
- Color ([6]; Control, no metal salt, 24 H): purple
- Intensity ([6]; Control, no metal salt, 24 H): 2.3 arbitrary units
- Color ([6]; Control, no metal salt, 48 H): purple
- Intensity ([6]; Control, no metal salt, 48 H): 2.3 arbitrary units
- Color ([6]; Iron citrate 50 mg/l, 24 H): purple
- Intensity ([6]; Iron citrate 50 mg/l, 24 H): 4 arbitrary units
- Color ([6]; Iron citrate 50 mg/l, 48 H): purple
- Intensity ([6]; Iron citrate 50 mg/l, 48 H): 4 arbitrary units
- Color [6, 8]: purple
- Intensity [6, 8]: 2.7 arbitrary units
- Color [6, 9]: purple
- Intensity [6, 9]: 2.7 arbitrary units
- Color ([6]; Tin chloride 50 mg/l, 24 H): orange
- Intensity ([6]; Tin chloride 50 mg/l, 24 H): 3 arbitrary units
- Color ([6]; Tin chloride 50 mg/l, 48 H): orange
- Intensity ([6]; Tin chloride 50 mg/l, 48 H): 4 arbitrary units
- Color ([7]; Aluminum sulfate 50 mg/l, 24 H): red
- Intensity ([7]; Aluminum sulfate 50 mg/l, 24 H): 4 arbitrary units
- Color ([7]; Aluminum sulfate 50 mg/l, 48 H): red
- Intensity ([7]; Aluminum sulfate 50 mg/l, 48 H): 4 arbitrary units
- Color ([7]; Control, no metal salt, 24 H): purple
- Intensity ([7]; Control, no metal salt, 24 H): 2.3 arbitrary units
- Color ([7]; Control, no metal salt, 48 H): purple
- Intensity ([7]; Control, no metal salt, 48 H): 2.3 arbitrary units
- Color ([7]; Iron citrate 50 mg/l, 24 H): purple
- Intensity ([7]; Iron citrate 50 mg/l, 24 H): 4 arbitrary units
- Color ([7]; Iron citrate 50 mg/l, 48 H): purple
- Intensity ([7]; Iron citrate 50 mg/l, 48 H): 4 arbitrary units
- Color [7, 8]: purple
- Intensity [7, 8]: 2.3 arbitrary units
- Color [7, 9]: purple
- Intensity [7, 9]: 2.3 arbitrary units
- Color ([7]; Tin chloride 50 mg/l, 24 H): orange
- Intensity ([7]; Tin chloride 50 mg/l, 24 H): 3 arbitrary units
- Color ([7]; Tin chloride 50 mg/l, 48 H): orange
- Intensity ([7]; Tin chloride 50 mg/l, 48 H): 4 arbitrary units
